In brackets after ≈: the same amount, converted by molar mass.
Experiments:
Assay type in all cases: functional
[1] = system: Staphylococcus aureus; assay: Antibacterial activity against Staphylococcus aureus MTCC96 assessed as inhibition of bacterial growth by standard broth microdilution method
[2] = system: Klebsiella pneumoniae; assay: Antibacterial activity against Klebsiella pneumoniae assessed as inhibition of bacterial growth by standard broth microdilution method
[3] = system: Pseudomonas aeruginosa; assay: Antibiofilm activity against Pseudomonas aeruginosa assessed as inhibition of biofilm formation
[4] = system: Staphylococcus aureus; assay: Antibiofilm activity against Staphylococcus aureus MTCC96 assessed as inhibition of biofilm formation
[5] = system: Pseudomonas aeruginosa; assay: Antibacterial activity against Pseudomonas aeruginosa assessed as inhibition of bacterial growth by standard broth microdilution method
[6] = system: Escherichia coli; assay: Antibacterial activity against Escherichia coli MTCC739 assessed as inhibition of bacterial growth by standard broth microdilution method
[7] = system: Bacillus subtilis; assay: Antibiofilm activity against Bacillus subtilis MTCC121 assessed as inhibition of biofilm formation
[8] = system: Staphylococcus epidermidis; assay: Antibacterial activity against Staphylococcus epidermidis MTCC435 assessed as inhibition of bacterial growth by standard broth microdilution method
[9] = system: Bacillus subtilis; assay: Antibacterial activity against Bacillus subtilis MTCC121 assessed as inhibition of bacterial growth by standard broth microdilution method
[10] = system: Staphylococcus epidermidis; assay: Antibiofilm activity against Staphylococcus epidermidis MTCC435 assessed as inhibition of biofilm formation
[11] = system: Escherichia coli; assay: Antibiofilm activity against Escherichia coli MTCC739 assessed as inhibition of biofilm formation
[12] = system: Staphylococcus epidermidis; assay: Potency index, ratio of ciprofloxacin MIC to test compound MIC for antibacterial activity against Staphylococcus epidermidis MTCC435
[13] = system: Bacillus subtilis; assay: Potency index, ratio of ciprofloxacin MIC to test compound MIC for antibacterial activity against Bacillus subtilis MTCC121

SMILES	MIC [1]	MIC [2]	BIC [3]	BIC [4]	MIC [5]	MIC [6]	BIC [7]	MIC [8]	MIC [9]	BIC [10]	BIC [11]	Ratio [12]	Ratio [13]
Clc1ccccc1-c1nnn2c1-c1ccccc1SC2	6.25 µg/mL (≈ 20.8 µM)	> 50 µg/mL	48 µg/mL	10.7 µg/mL	50 µg/mL (≈ 167 µM)	> 50 µg/mL	26.1 µg/mL	25 µg/mL (≈ 83.4 µM)	12.5 µg/mL (≈ 41.7 µM)	21.2 µg/mL	–	–	–
COc1ccc(-c2nnn3c2-c2ccccc2SC3)cc1	> 50 µg/mL	> 50 µg/mL	–	–	> 50 µg/mL	> 50 µg/mL	–	> 50 µg/mL	50 µg/mL (≈ 169 µM)	–	–	–	–
Cc1cccc(-c2nnn3c2-c2ccccc2S(=O)(=O)C3)c1	> 50 µg/mL	> 50 µg/mL	–	–	> 50 µg/mL	> 50 µg/mL	–	50 µg/mL (≈ 161 µM)	50 µg/mL (≈ 161 µM)	–	–	–	–
COc1cccc(-c2nnn3c2-c2ccccc2S(=O)(=O)C3)c1	6.25 µg/mL (≈ 19.1 µM)	25 µg/mL (≈ 76.4 µM)	47.3 µg/mL	4.2 µg/mL	50 µg/mL (≈ 153 µM)	50 µg/mL (≈ 153 µM)	3.5 µg/mL	12.5 µg/mL (≈ 38.2 µM)	6.25 µg/mL (≈ 19.1 µM)	24.8 µg/mL	52.3 µg/mL	–	–
COc1cccc(-c2nnn3c2-c2ccccc2SC3)c1	25 µg/mL (≈ 84.6 µM)	> 50 µg/mL	–	–	> 50 µg/mL	50 µg/mL (≈ 169 µM)	–	50 µg/mL (≈ 169 µM)	25 µg/mL (≈ 84.6 µM)	–	–	–	–
O=S1(=O)Cn2nnc(-c3ccccc3)c2-c2ccccc21	25 µg/mL (≈ 84.1 µM)	> 50 µg/mL	–	–	> 50 µg/mL	> 50 µg/mL	–	25 µg/mL (≈ 84.1 µM)	50 µg/mL (≈ 168 µM)	–	–	–	–
O=S1(=O)Cn2nnc(-c3ccc(Br)cc3)c2-c2ccccc21	25 µg/mL (≈ 66.4 µM)	50 µg/mL (≈ 133 µM)	20.4 µg/mL	28.1 µg/mL	25 µg/mL (≈ 66.4 µM)	6.25 µg/mL (≈ 16.6 µM)	23.9 µg/mL	50 µg/mL (≈ 133 µM)	12.5 µg/mL (≈ 33.2 µM)	57.6 µg/mL	10.9 µg/mL	–	–
Cc1cccc(-c2nnn3c2-c2ccccc2SC3)c1	> 50 µg/mL	> 50 µg/mL	–	–	> 50 µg/mL	> 50 µg/mL	–	> 50 µg/mL	> 50 µg/mL	–	–	–	–
O=S1(=O)Cn2nnc(-c3ccccc3Cl)c2-c2ccccc21	6.25 µg/mL (≈ 18.8 µM)	50 µg/mL (≈ 151 µM)	22.8 µg/mL	5.88 µg/mL	25 µg/mL (≈ 75.4 µM)	50 µg/mL (≈ 151 µM)	4.15 µg/mL	3.12 µg/mL (≈ 9.4 µM)	3.12 µg/mL (≈ 9.4 µM)	2.94 µg/mL	48 µg/mL	2	2
Cc1ccc(-c2nnn3c2-c2ccccc2S(=O)(=O)C3)cc1	50 µg/mL (≈ 161 µM)	50 µg/mL (≈ 161 µM)	–	–	50 µg/mL (≈ 161 µM)	25 µg/mL (≈ 80.3 µM)	–	25 µg/mL (≈ 80.3 µM)	25 µg/mL (≈ 80.3 µM)	–	–	–	–
Brc1ccc(-c2nnn3c2-c2ccccc2SC3)cc1	50 µg/mL (≈ 145 µM)	50 µg/mL (≈ 145 µM)	–	–	> 50 µg/mL	25 µg/mL (≈ 72.6 µM)	–	> 50 µg/mL	> 50 µg/mL	–	–	–	–
COc1ccc(-c2nnn3c2-c2ccccc2S(=O)(=O)C3)cc1	50 µg/mL (≈ 153 µM)	> 50 µg/mL	–	–	> 50 µg/mL	> 50 µg/mL	–	25 µg/mL (≈ 76.4 µM)	25 µg/mL (≈ 76.4 µM)	–	–	–	–
Cc1ccc(-c2nnn3c2-c2ccccc2SC3)cc1	> 50 µg/mL	50 µg/mL (≈ 179 µM)	–	–	50 µg/mL (≈ 179 µM)	> 50 µg/mL	–	50 µg/mL (≈ 179 µM)	50 µg/mL (≈ 179 µM)	–	–	–	–
O=C(O)c1cn(C2CC2)c2cc(N3CCNCC3)c(F)cc2c1=O [CIPROFLOXACIN]	3.12 µg/mL (≈ 9.42 µM)	3.12 µg/mL (≈ 9.42 µM)	2.75 µg/mL	4.88 µg/mL	1.56 µg/mL (≈ 4.71 µM)	–	5.5 µg/mL	6.25 µg/mL (≈ 18.9 µM)	6.25 µg/mL (≈ 18.9 µM)	2.24 µg/mL	4.29 µg/mL	–	–
